How the values were obtained:
[1] = Metabolic conversion to the acid form [+]fluprostenol once absorbed in the body; assay type: in vivo, mammal; details: assessed by comparison of PGF2α analogs
Description: In particular, the 5-Heptenamide administered to a mammal can be metabolized to produce an acid form which is a single isomer of fluprostenol, [+]fluprostenol having the structure of
Since the compound of Formula I is an amide derivative of a PGF2α analog, once absorbed, hydrolysis by enzymes in the body converts the amide back to the biologically active carboxylic acid. In particular, the 5-Heptenamide can be metabolized to [+]fluprostenol which then binds to the prostaglandin receptor with high affinity and has reduced side effects such as eye irritation and hyperemia (excess blood in vessels supplying the eye).
When absorbed in the body, is also metabolized into [+]fluprostenol. Based on extensive studies comparing the chemical structures, ocular and dermal absorption, metabolism, potency at the biological target site, toxicological and pharmacological of PGF2α analogs and derivatives, such as bimatoprost and travoprost, the inventor believes that the compound of Formula I, in particular the 5-Heptenamide, has much more balanced and favorable profiles of safety and efficacy, especially for long term chronic application to the skin. […]

[2] = Estimated margin of safety for topical use; details: assuming absorbed daily dosage of 0.020 μg/kg/day; relative to no-observable-adverse-effect dose in long-term laboratory toxicity tests; conservatively estimated
Description: When absorbed in the body, is also metabolized into [+]fluprostenol. Based on extensive studies comparing the chemical structures, ocular and dermal absorption, metabolism, potency at the biological target site, toxicological and pharmacological of PGF2α analogs and derivatives, such as bimatoprost and travoprost, the inventor believes that the compound of Formula I, in particular the 5-Heptenamide, has much more balanced and favorable profiles of safety and efficacy, especially for long term chronic application to the skin. […] Assuming an absorbed daily dosage of 0.020 μg/kg/day, due to tightness of the outmost keratinized skin layer (the stratum corneum) which causes percutaneous permeability of most drugs 100-1000 times less than through the conjunctiva (Urtti & Salminen (1993) Survey of Opthalmology 37:435-456) and the lower hydrolysis rate of the 5-Heptenamide than travoprost, the margin of safety for 5-Heptenamide is conservatively estimated to be about 71,000, which means normal use of the composition delivers a dose that is less than about one 71,000th the no-observable-adverse-effect dose in long-term laboratory toxicity tests.
Traditionally, a margin of safety of 100 (10 for interspecies extrapolation, and 10 for […]) is considered adequate. […]

Row | SMILES | conversion to [+]fluprostenol (acid form) [1] | margin of safety [2]
1 | CCNC(=O)CCC/C=C\C[C@@H]1[C@H](/C=C/[C@@H](O)COc2cccc(C(F)(F)F)c2)[C@H](O)C[C@@H]1O (relative stereo) [5-Heptenamide, 5-Heptenamide, 7-(3,5-dihydroxy-2-(3-hydroxy-4-(3-(trifluoromethyl)phenoxy)-1-butenyl)cyclopentyl)-, N-ethyl, (1R-(1alpha(Z), 2beta(1E,3R*), 3alpha, 5alpha)] | not as quantitatively converted to the acid form | about 71,000
2 | CC(C)OC(=O)CCC/C=C\C[C@@H]1[C@@H](/C=C/[C@@H](O)COc2cccc(C(F)(F)F)c2)[C@H](O)C[C@@H]1O [travoprost, Travoprost, reference compound] | essentially completely converted | 

Reference: US7879910B1, “Compositions and methods for promoting lush hair growth” (Jan Marini Skin Research, Inc., priority 2006, dated 2011)
